In PubChem BioAssay AID463206 (Broad Institute, 2010) one finds AC50 data, which are given here for 86 compounds.

Structures are written as SMILES. Activity calls are given as the source filed them.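 Rule for the calls: active = caspase luminescence falls with dose and the half-maximal concentration AC50 from the fitted curve is at or below a set limit; inconclusive = flat fit at 30 to 70% signal loss, or invalid fit; inactive = AC50 above the limit, or signal rises instead.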

The AC50 is the midpoint of the concentration-response curve, whichever way the signal moves.

This assay deals with INS-1E cytokine-induced caspase-3/7, Caspase-Glo luminescence, 48 h. Briefly: suppression of cytokine-driven beta-cell apoptosis – INS-1E rat cells, luminescence, orthogonal assay for beta-cell apoptosis protection project, dose response (AID 463206).
With `Cc1ccc(NC2=C(N3CCCCC3)C(=O)c3ccccc3C2=O)cc1`, the AC50 is > 26 µM (inactive). The figure for `COc1ccc(Cn2c(SCc3cc(C)ccc3C)nc3cc(OC)c(OC)cc3c2=N)cc1` is > 26 µM (inactive); for `CCOC(=O)c1[nH]cnc1N=Nc1c(O)ccc2ccccc12` it is > 26 µM (inactive). As for `Nc1ccc(Br)cc1-c1nc2ccccc2[nH]c1=O`, the AC50 was > 26 µM (inactive). As for `CCc1ccc(-n2cc(-c3ccc(F)cc3)[n+]3c2SCCC3)cc1`, the figure is > 26 µM (inactive); as for `O=C(CN1CC[n+]2c(-c3cccs3)csc21)c1ccc(-c2ccccc2)cc1`, > 26 µM (inactive); as for `COc1ccccc1/C=N\Nc1cc(C)nc(-n2nc(C)cc2C)n1`, > 26 µM (inactive). The figure for `COc1ccc(OC)c2sc(N(CCCN(C)C)C(=O)c3ccc(S(=O)(=O)N4CCc5ccccc5C4)cc3)nc12` is > 26 µM (inactive); for `CCN(CC)CCNc1ncnc2c1sc1nc(N3CCOCC3)c3c(c12)CC(C)(C)SC3` it is 23.6 µM; for `CC[N+](C)(CC)CCC(c1ccccc1)C1CCCCC1` (stereo unspecified) it is > 26 µM (inactive). As for `CCCNC(=O)c1c(N)n(-c2cccc(OC)c2)c2nc3ccccc3nc12`, the figure is > 26 µM (inactive); as for `COc1cnc(-c2ccccn2)nc1Sc1ccccc1Cl`, > 26 µM (inactive). For the compound `O=C(Nc1ccc(F)cc1)Nc1cc(OCC(F)(F)F)cc(OCC(F)(F)F)c1`, the AC50 is > 26 µM (inactive). In the case of `COc1cc(Br)cc(/C=N/NC(=O)Cc2ccc(C(F)(F)F)cc2[N+](=O)[O-])c1O`, the AC50 was > 26 µM (inactive). As for `CC(C)NC(=S)N/N=C/c1cc(Br)ccc1O`, the figure is > 26 µM (inactive); as for `O=C(N/N=C/c1ccc([N+](=O)[O-])s1)C(O)c1ccccc1` (stereo unspecified), > 26 µM (inactive); as for `NS(=O)(=O)c1ccc(N/N=C2/CCCCC2C2CCCCC2)c([N+](=O)[O-])c1` (stereo unspecified), > 12 µM (inactive). The figure for `O=c1[nH]c(=O)n(Cc2ccco2)c2c1C(C(F)(F)F)(C(F)(F)F)N=C(c1ccc(F)cc1)N2` is > 26 µM (inactive); for `CC(C)Nc1ccc(Nc2ccnc3cc4ccccc4cc23)cc1` it is 3.23 µM; for `C/C(=N\NC(=O)c1cc2ccccc2cc1O)c1ccccn1` it is > 26 µM (inactive). As for `Cc1cc(N2CCOCC2)nc(N)n1`, the figure is > 26 µM (inactive). In the case of `C(C#CCCCCCCCCC[n+]1ccccc1)#CCCCCCCCCC[n+]1ccccc1`, the AC50 was > 26 µM (inactive). The figure for `COc1cccc(/C=N/Nc2nc3ccccc3n3cnnc23)c1O` is > 26 µM (inactive). The figure for `CCCCCCCCCn1c2c(c(=N)c3c1CCC3)CCC2` is > 12 µM (inactive); for `CCN(CC)CCOC(=O)c1ccc(N/C=C(/C#N)c2nc(-c3ccc4c(c3)OCO4)cs2)cc1` it is > 26 µM (inactive); for `Cn1nnnc1Sc1ncnc2scc(-c3cc4ccccc4o3)c12` it is > 26 µM (inactive). The figure for `Cc1ccc2[nH]c(=O)c(C3C(C#N)=C(N)Oc4c3ccc3cccnc43)cc2c1` (stereo unspecified) is > 26 µM (inactive); for `Cc1ccc([N+](=O)[O-])cc1N(CC(=O)Nc1ccc(S(=O)(=O)Nc2cccc(C(F)(F)F)c2)cc1)S(C)(=O)=O` it is > 26 µM (inactive).

As for `O=C(CSc1nnc(Cn2nnc3ccccc32)o1)N(Cc1ccc(F)cc1)c1ccccc1`, the AC50 was > 26 µM (inactive). On to `O=C(N/N=C/c1ccccc1)c1c(O)c2ccccc2[nH]c1=O`, for which the AC50 is > 26 µM (inactive).

Regarding `CC[n+]1ccc(/C=C/c2c[nH]c3ccccc23)cc1`, the AC50 is > 26 µM (inactive). Take `Cc1ccc(NC(=O)Cc2nn(C)c(=O)c3ccccc23)cc1F`: the AC50 was > 26 µM (inactive).

For the compound `CCCCC(=O)NC(c1ccc(Cl)cc1)c1ccc2cccnc2c1O` (stereo unspecified), the AC50 is > 12 µM (inactive). As for `CCN(CC)S(=O)(=O)c1cccc(NC(=O)CNc2cccc(S(=O)(=O)N3CCCC3)c2)c1`, the figure is > 26 µM (inactive); as for `Cn1cc(CNCc2ccc(OC(F)(F)F)cc2)c(-c2ccc3c(c2)OCCO3)n1`, > 26 µM (inactive). As for `O=C(NNC(=O)C12CC3CC(CC(C3)C1)C2)c1ccccn1`, the figure is > 26 µM (inactive).

`Cc1ccc(NNC(=O)c2ccno2)cc1Cl`: the AC50 was > 26 µM (inactive). The figure for `CC(C)(C)c1ccc(NNC(=O)C2CCC2)cc1` is > 26 µM (inactive). The figure for `O=C(CNC(=O)c1ccc2c(c1)OCO2)N/N=C/c1cc(Br)ccc1O` is > 26 µM (inactive); for `CCn1c(-c2ccc(C)cc2)nn(CC(=O)NCCc2ccccc2)c1=S` it is > 26 µM (inactive). As for `CCOC(=O)C1CCCN(S(=O)(=O)c2ccc(S(=O)(=O)N(CC)CC)cc2)C1` (stereo unspecified), the figure is > 26 µM (inactive); as for `COc1ccccc1NC(=O)CN(c1ccc(C23CC4CC(CC(C4)C2)C3)cc1)S(C)(=O)=O`, > 26 µM (inactive). As to `NC1=C(Br)C(=O)c2ccccc2C1=O`, the AC50 was > 26 µM (inactive). On to `Cn1c2c(c(=O)n(C)c1=O)C(C(F)(F)F)(C(F)(F)F)N=C(c1ccc(Cl)cc1)N2`, for which the AC50 was > 26 µM (inactive). Take `O=C(Nc1cccnc1)c1cccs1`: the AC50 is > 26 µM (inactive). As for `O=C(CNc1ccccc1)N/N=C/c1c(O)ccc2ccccc12`, the figure is > 26 µM (inactive); as for `FC(F)(F)c1nnc2c(Sc3ccccc3)nc3ccc(Cl)cc3n12`, > 26 µM (inactive); as for `CCCCCCCCCCCCCCCC[N+](C)(C)CC`, > 26 µM (inactive). Regarding `NNC(=S)Nc1ccc(OC(F)(F)F)cc1`, the AC50 was > 26 µM (inactive). `Nc1nonc1-n1nnc(C(=O)N/N=C/c2ccccc2O)c1CN1CCCC1`: the AC50 is > 26 µM (inactive).

`[O-][n+]1onc2c1CCc1c-2nn(-c2ccccc2Cl)[n+]1[O-]`: the AC50 is 15.9 µM. For `Cc1cccnc1CCNCc1c(C(=O)N2C[C@@H](C)O[C@@H](C)C2)nc2ccc(Cl)cn12`, the AC50 was > 26 µM (inactive).

Regarding `COc1cccc(/C=N/NC(=O)C(=O)Nc2ccccc2OC(F)(F)C(F)F)c1O`, the AC50 was > 26 µM (inactive). The figure for `COc1cc(CC(=O)Nc2nc(-c3ccc(F)c(F)c3)cs2)cc(OC)c1OC` is > 26 µM (inactive). The figure for `COc1ccc(CNCCC(c2ccc(OC(C)C)cc2)C(C)C)cc1OC` (stereo unspecified) is > 26 µM (inactive). As for `C=CCC1(CC=C)CCCN1C(=O)c1cc(COc2ccc(C)nc2)on1`, the figure is > 26 µM (inactive). On to `CC1CC(=O)c2c(cc3c(-c4c(O)cc(O)c5c(O)c6c(cc45)OC(C)CC6=O)c(O)cc(O)c3c2O)O1` (stereo unspecified), for which the AC50 is > 26 µM (inactive).

With `Cc1occc1C(=O)N/N=C/c1c(O)ccc2ccccc12`, the AC50 is > 26 µM (inactive). The figure for `CCOC(=O)c1ccc(NC(=O)c2cccnc2)cc1` is > 26 µM (inactive). Turning to `Fc1cccc(Cl)c1-c1nnc2ccc3ccccc3n12`, the AC50 is > 26 µM (inactive). As for `Cc1nc2ccccc2c(=O)n1/N=C/c1c(O)ccc2ccccc12`, the figure is > 26 µM (inactive). As for `CCN1CCN(Cc2ccc(NC(=O)c3cc(NC(=O)c4cncc(-c5ccc(C#N)cc5)c4)cc(OC)c3)cc2C(F)(F)F)CC1`, the figure is > 26 µM (inactive); as for `NC(=S)N/N=C/c1c(O)c(Br)cc2oc3c(c12)CCCC3`, > 26 µM (inactive); as for `C/C(=N\Nc1nc(C)cc(-c2ccccc2)n1)c1ccccc1`, > 26 µM (inactive). The figure for `CCN(CC)CCNC(=O)c1ccc2c(c1NCCO)C(=O)c1ccccc1C2=O` is > 26 µM (inactive); for `Cc1cc(N/N=C/c2ccc(O)cc2O)nc(-c2ccccc2O)n1` it is > 26 µM (inactive). In the case of `CCC(C)(C)c1ccc(OCCCC[n+]2cccc(C)c2C)c(C(C)(C)CC)c1`, the AC50 was > 26 µM (inactive). The figure for `O=[N+]([O-])c1ccc(O)c(/C=N/Nc2nc3ccccc3[nH]2)c1` is > 26 µM (inactive); for `COc1ccc(CNc2ncnc3sccc23)cc1` it is > 26 µM (inactive). The figure for `CCCCS(=O)(=O)/C=C\C=C/S(=O)(=O)CCCC` is > 26 µM (inactive); for `CCC(=O)NC(c1cccs1)c1cc(Cl)c2cccnc2c1O` (stereo unspecified) it is > 26 µM (inactive); for `Nc1c(C(=O)Nc2ccc3c(c2)OCCO3)nnn1Cc1ccccc1Cl` it is > 26 µM (inactive). As for `O=C(O)CCCC(=O)Nc1ccc(C(=O)NCc2cccnc2)cc1`, the figure is > 26 µM (inactive). As for `Cc1c(C(=O)Nc2nc(-c3ccccn3)cs2)oc2ccccc12`, the AC50 was > 26 µM (inactive). As for `Cc1ccc(NC(=O)/C=C/c2ccc([N+](=O)[O-])s2)c(C)c1`, the AC50 was 1.17 µM. The figure for `O=C(N/N=C(\Cc1ncc[nH]1)c1ccccc1)c1ccncc1` is > 26 µM (inactive).

On to `Cc1cc(N/N=C/c2ccccc2[N+](=O)[O-])nc(-n2nc(C)cc2C)n1`, for which the AC50 was > 26 µM (inactive). With `CC(C)(C)OC(=O)NCCCCCc1cn([C@@H](CO)C(=O)NCCCCCCCCCCC(=O)N2CCN(C(=O)OC(C)(C)C)CC2)nn1`, the AC50 was > 26 µM (inactive). The figure for `COc1ccc(NS(=O)(=O)c2ccc(-c3coc(C)n3)cc2)cc1OC` is > 26 µM (inactive). The figure for `Clc1cccc(N=C2NN=C(c3ccc4c(c3)OCCO4)CS2)c1` is > 26 µM (inactive); for `O=[N+]([O-])c1cccnc1N/N=C/c1ccccc1O` it is > 26 µM (inactive); for `CCCCSc1nc2sc3c(c2c(=O)n1-c1ccc(C)cc1)CCN(C)C3` it is > 26 µM (inactive).

As for `CC1=C/C(=N\OS(=O)(=O)c2ccccc2)C(C(C)C)=CC1=O`, the AC50 was > 26 µM (inactive).

On to `CCCCNc1c(-c2ccc(OC)c(SC(C)CC)c2)nc2ccc(C)cn12` (stereo unspecified), for which the AC50 was > 26 µM (inactive). As for `CCN(CC)c1ccc(/C=N/NC(=O)CNC(=O)C2COc3ccccc3O2)c(O)c1` (stereo unspecified), the figure is > 26 µM (inactive); as for `CCCCCCCCn1c2c(c(=N)c3c1CCC3)CCCC2`, > 26 µM (inactive).
